The values below are quoted from earlier work in patent publication US20200338016A1, “COMBINATION BROAD-SPECTRUM ANTIBIOTIC PREPARATIONS FOR DRUG-RESISTANT PATHOGENS” (priority 2019, published 2020).

Like-named read-outs stand apart in the source and are kept apart here.

For series [1], the system named is multidrug resistant Acinetobacter baumannii. Conditions: six strains of multidrug resistant Acinetobacter baumannii.
Series [2] has as its system antibiotic-resistant bacteria. The settings on record: against antibiotic-resistant bacteria.
Series [3] has as its system antibiotic resistant C. albicans.
Series [4] has as its system antibiotic resistant bacteria. Conditions: four antibiotic resistant bacteria.
Series [5] has as its system extensively multidrug resistant Acinetobacter baumannii.
Another series has as its system MRSA. The settings on record: for MBEC: Minimal Biofilm Eradication Concentration, single agent; for MIC: Minimal Inhibitory Concentration.
Series [6] has as its system multidrug resistant Klebsiella pneumonia. The settings on record: twenty strains of multidrug resistant Klebsiella pneumonia.
Series [7] deals with Staphylococcus aureus (NCTC 6571).
Series [8] has as its system Escherichia coli (NCTC 10418).
Series [9] has as its system Bacillus subtilis (NCTC 8236).
Series [10] relates to Proteus vulgaris (NCTC 4175).
For series [11], the system named is Aspergillus niger (ATCC 10578).
The test system of series [12] is Candida albicans (ATCC 10231).
The test system of series [13] is multidrug-resistant Acinetobacter baumannii.
Series [14] deals with antibiotic resistant bacteria. The settings on record: four strains of antibiotic resistant bacteria; extracted from horseradish.
Series [15] relates to antibiotic-resistant streptococcus. The settings on record: 32 strains of antibiotic-resistant streptococcus.
Series [16] relates to antibiotic resistant Staphylococcus aureus.
The subject of series [17] is methicillin-resistant Staphylococcus aureus. Conditions: MRSA.
Series [18] relates to methicillin-resistant Staphylococus aureus.

For `O=c1c(O)cc([C@H]2Oc3cc(O)cc(O)c3C[C@H]2O)cc2c([C@H]3Oc4cc(O)cc(O)c4C[C@H]3O)cc(O)c(O)c12` [theaflavin], the concentration that inhibits in series [1] was 512 milligrams per liter. Besides, the “antibiotic properties (in words)” value in series [2] is “antibiotic properties”.

For the compound `C=CC(C)(O)CCC=C(C)C` (centres unmarked) [linalool], in series [3], the concentration that inhibits was 1580 micrograms per milliliter.

With `O=c1cc(-c2ccc(O)c(O)c2)oc2cc(O)cc(O)c12` [luteolin], the concentration that kills in series [4] is reported as 5 milligrams per milliliter.

Take `C[C@H]1[C@H]2CC[C@H]3[C@@H]4CC=C5C[C@@H](N(C)C)CC[C@]5(C)[C@H]4CC[C@]23CN1C` [conessine]: the concentration that inhibits in [5] is recorded as 10 milligrams per liter.

As to theasinesin A, the “antibiotic properties (in words)” value in [2] is reported as “antibiotic properties”.

For `O=C(O[C@@H]1Cc2c(O)cc(O)cc2O[C@@H]1c1ccc(O)c(O)c1)c1cc(O)c(O)c(O)c1` [epicatechin gallate], the “antibiotic properties (in words)” value in series [2] is listed as “antibiotic properties”.

On to `C=CCc1ccc(O)c(OC)c1` [Eugenol], for which the MBC with MRSA (Minimal Bactericidal Concentration) was 0.08 percentage of volume. Also, in the series with MRSA, the MBEC is 0.08 percentage of volume and the MIC was 0.04 percentage of volume.

For `O=C(O)/C=C/c1ccc(O)c(O)c1` [caffeic acid], the concentration that kills in series [6] is listed as 1024 microgram per milliliter.

As for `O=c1c(O)c(-c2ccc(O)cc2)oc2cc(O)cc(O)c12` [kaempferol], the concentration that kills in series [4] is 5 milligrams per milliliter. Besides, the “antibiotic properties (in words)” value in series [2] was “antibiotic properties”.

With piliostigmol, the “inhibition (in words)” value in series [7], in [8], in series [9], in series [10], in series [11] and in series [12] was “inhibits” in each case.

For the compound `Cn1cnc2c1c(=O)[nH]c(=O)n2C` [theobromine], in series [2], the “antibiotic properties (in words)” value is “antibiotic properties”.

Consider `O=C(O[C@@H]1O[C@@H]2COC(=O)c3cc(O)c(O)c(O)c3-c3c(cc(O)c(O)c3O)C(=O)O[C@H]([C@H]1O)[C@@H]2O)c1cc(O)c(O)c(O)c1` [corilagin], for which the concentration that inhibits in series [13] was 1,000 micrograms per milliliter.

Take `O=c1c(O)c(-c2ccc(O)c(O)c2)oc2cc(O)cc(O)c12` [quercetin]: the concentration that kills in series [6] was 1024 microgram per milliliter; in series [4], 5 milligrams per milliliter. The “antibiotic properties (in words)” value in series [2] is “antibiotic properties”.

In the case of `Oc1cc(O)c2c(c1)O[C@H](c1cc(O)c(O)c(O)c1)[C@H](O)C2` [epigallocatechin], in series [2], the “antibiotic properties (in words)” value is “antibiotic properties”.

With `Oc1ccc([C@H]2Oc3cc(O)cc(O)c3C[C@H]2O)cc1` [epiafzelechin], the “antibiotic properties (in words)” value in [2] is listed as “antibiotic properties”.

For `S=C=NCCc1ccccc1` [phenylethyl isothiocyanate], the concentration that kills in [14] is given as 2000 microgram per milliliter.

Consider `CC(C)=CCC/C(C)=C/CO` [geraniol], for which the concentration that inhibits in [3] is given as 1580 micrograms per milliliter.

As to `Cc1ccc(C(C)C)cc1O` [Carvacrol], the concentration that inhibits in series [15] is listed as 256 micrograms per milliliter. For the same compound, in the series on MRSA, the MBEC is recorded as 0.04 percentage of volume and the MIC is 0.02 percentage of volume.

Consider `O=C(/C=C/c1ccc(O)c(O)c1)O[C@@H]1C[C@](O)(C(=O)O)C[C@@H](O)[C@H]1O` [chlorogenic acid], for which, in series [4], the concentration that kills was 5 milligrams per milliliter. Besides, the “antibiotic properties (in words)” value in [2] was “antibiotic properties”.

In the case of theaflavin gallate, in series [2], the “antibiotic properties (in words)” value was “antibiotic properties”.

`COc1cc(/C=C/C(=O)O)ccc1O` [ferulic acid]: the concentration that kills in series [4] is 5 milligrams per milliliter.

As to `O=C(O[C@@H]1Cc2c(O)cc(O)cc2O[C@@H]1c1ccc(O)cc1)c1cc(O)c(O)c(O)c1` [epiafzelechin gallate], in [2], the “antibiotic properties (in words)” value is recorded as “antibiotic properties”.

Turning to `O=C(O[C@@H]1Cc2c(O)cc(O)cc2O[C@@H]1c1cc(O)c(=O)c2c(O)c(O)cc([C@H]3Oc4cc(O)cc(O)c4C[C@H]3OC(=O)c3cc(O)c(O)c(O)c3)c2c1)c1cc(O)c(O)c(O)c1` [theaflavin digallate], the “antibiotic properties (in words)” value in series [2] is “antibiotic properties”.

Regarding pinene, the concentration that inhibits in [16] was 20 microliters per milliliter.

Take `Oc1cc(O)c2c(c1)O[C@H](c1cc(O)c(O)c(O)c1)[C@@H](O)C2` [gallocatechin]: the “antibiotic properties (in words)” value in series [2] is “antibiotic properties”.

In the case of catechin, the concentration that kills in series [4] is 5 milligrams per milliliter. Besides, the “antibiotic properties (in words)” value in [2] was “antibiotic properties”.

For the compound trechebulin, the concentration that inhibits in series [13] was 1,000 micrograms per milliliter.

Regarding `Cn1c(=O)c2c(ncn2C)n(C)c1=O` [caffeine], the “antibiotic properties (in words)” value in series [2] is listed as “antibiotic properties”.

With `CC1(C)[C@@H](O)CC[C@]2(C)[C@H]3C(=O)C=C4[C@@H]5C[C@@](C)(C(=O)O)CC[C@]5(C)CC[C@@]4(C)[C@]3(C)CC[C@@H]12` [glycerrhetinic acid], in [17], the concentration that kills was 0.223 µM.

As for `O=C(O[C@@H]1Cc2c(O)cc(O)cc2O[C@@H]1c1cc(O)c(O)c(O)c1)c1cc(O)c(O)c(O)c1` [EGCG, epigallocatechin gallate], the concentration that kills in series [6] is on record as 1024 microgram per milliliter. The “antibiotic properties (in words)” value in series [2] was “antibiotic properties”.

`CC(C)=CCCC(C)=CC=O` [citral]: the concentration that kills in [18] is 0.06%.

For the compound catechin gallate, the “antibiotic properties (in words)” value in series [2] is on record as “antibiotic properties”.

With `Cn1c(=O)c2[nH]cnc2n(C)c1=O` [theophylline], the “antibiotic properties (in words)” value in series [2] is given as “antibiotic properties”.

Take `O=c1cc(-c2ccccc2)oc2c(O)c(O)cc(O)c12` [norwogonin]: in series [13], the concentration that inhibits is recorded as 1,000 micrograms per milliliter.
